SMILES strings stand for the structures. Converted amounts (≈) assume the structure as drawn.

The term MBC denotes the smallest concentration meeting the test's criterion for killing. The MIC is the lowest concentration that inhibits growth of the organism. A lower MIC goes with inhibition by little substance. As a reminder, the Kd is the constant that tells how readily two partners part at equilibrium. Read a low Kd as higher affinity.

Assay [1] deals with methicillin-resistant S. aureus (ATCC 43300). In words: MIC and MBC, broth dilution, MRSA ATCC 43300. It is filed as cell-based. The conditions noted are these: Staphylococcus aureus. The essentials:
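Compounds, in 2.5% tween-80/2.5% DMSO, serially diluted in MH broth over 32–0.01 µg/mL with 5 × 10^5 CFU/mL inoculum, triplicates, 22–26 h at 37 °C; MIC = lowest concentration with no visible growth. MBC from plating non-turbid wells on MH agar, further 22–26 h at 37 °C.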

Another assay has as its system 50S ribosome. In words: SPR interaction and affinity analysis. It is filed as binding, S. aureus ATCC 43300. The conditions noted are these: 4 °C. The essentials: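 50S subunit purified from S. aureus ATCC 43300 by sucrose cushion/gradient; compounds (100 μM in DMSO) photo-cross-linked on sensor chip. Ribosome flowed at 200–3200 nM in PBST pH 7.4, 4 °C, 600 s association, 360 s dissociation. KD = Kd/Ka from 1:1 Langmuir fit with mass transfer.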

For the next assay, the system named is MRSA ATCC 43300. The assay can be described thus: Constant concentration time-kill curves. As to conditions: 2× MIC, in 9 h. It is filed as cell-based, Staphylococcus aureus. On the procedure: The time-kill curve experiments of compound 8 and compound 9 were performed according to a previous report in triplicate. The logarithmic phase of MRSA 43300 was diluted to about 10^6 CFU/mL with MH broth. […] All samples were shaken at 37 °C. Samples (100 μL) were taken at 0, 3, 6, 9 and 24 h from the mixtures. Each sample was diluted decuple continuously with sterile saline. Then, 20 μL of the diluted sample was plated on the sterile MH agar plate and incubated for 22–26 h at 37 °C. The total bacteria on the plates were counted as CFU/mL to calculate the bacterial colonies. The time-kill curve was constructed by scheming log10 CFU/mL of bacteria counts versus time.

In assay [1], `C=C[C@]1(C)C[C@@H](OC(=O)CNc2ccc(F)cc2)[C@]2(C)[C@H](C)CC[C@]3(CCC(=O)[C@H]32)[C@@H](C)[C@@H]1O` [Compound 9, 22-(4-Fluoroanilineyl)-22-deoxypleuromutilin] yielded a minimal bactericidal concentration (MBC) of 0.25 mg/L (≈ 0.53 µM) and an MIC of 0.06 mg/L (≈ 0.127 µM). Moreover, in the assay on 50S ribosome (1:1 Langmuir binding), the Avg ka amounted to 417 M⁻¹ s⁻¹ and the Avg kd amounted to 7.39e-06 s⁻¹. On 50S ribosome (KD = Kd/Ka), this compound came in with a Kd of 0.0177 µM. For the same compound, the “MRSA killed (time-kill)” value in the assay with MRSA ATCC 43300 was determined as 99.9%.

These data come from PMC8838415, “Discovery of Novel Pleuromutilin Derivatives as Potent Antibacterial Agents for the Treatment of MRSA Infection” (Molecules, 2022).
